Test [1] has as its system HCV replicon I389luc-ubi-neo/NS3-3'/ET in ET (Huh-lucubineo-ET) cells. As to the kind of experiment: Replicon assay (Biological Example 2), luciferase read-out. Particulars: Hepatitis C virus, luciferase activity 48 hours after compound addition. The test is classed as cell-based. How it is done: A cell line, ET (Huh-lucubineo-ET) is used for screening of compounds for inhibiting HCV RNA dependent RNA polymerase. The ET cell line is stably transfected with RNA transcripts harboring a I389luc-ubi-neo/NS3-3′/ET; replicon with firefly luciferase-ubiquitin-neomycin phosphotransferase fusion protein and EMCV-IRES driven NS3-5B polyprotein containing the cell culture adaptive mutations (E1202G; […]; K1846T) (Krieger at al, 2001 and unpublished). The ET cells are grown in DMEM (Dulbeco's Modified Eagle's Medium), supplemented with 10% fetal calf serum, 2 mM Glutamine, Penicillin (100 IU/mL)/Streptomycin (100 μg/mL), 1× nonessential amino acids, and 250 μg/mL G418 (“Geneticin”). Reagents are all available through Life Technologies (Bethesda, Md.). The cells are plated at 0.5-1.0×10^4 cells/well in the 96 well plates and incubated for 24 hrs before adding test compound. The compounds are added to the cells to achieve a final concentration of 0.1 nM to 50 μM and a final DMSO (dimethylsulfoxide) concentration of 0.5%. Luciferase activity is measured 48 hours later by adding a lysis buffer and the substrate (Catalog number Glo-lysis buffer E2661 and Bright-Glo luciferase system E2620 Promega, Madison, Wis.). Cells should not be too confluent during the assay. Percent inhibition of replication data is plotted relative to no compound control. To determine the EC50 (effective concentration at which 50% of the maximum inhibition is observed), a 10 point, 3-fold serial dilution for each compound is used, which spans a concentration range of 1000 fold. EC50 values were calculated by fitting % inhibition at each concentration to the following equation:
% inhibition=100%/[(EC50/[I])^b+1]
where b is Hill's coefficient.
Background: In antiviral work, replicon cells carry a viral genome segment that copies itself.

In test [2] the target is T1, HCV polymerase (Hepatitis C virus genotype 1b, UniProt Q9WMX2).
T1 construct: (His)6 (C)
As to the kind of experiment: biochemical. Particulars: polymerase assay of Biological Example 1; read-out: NS5B polymerase IC50.

pIC50: −log10 of the molar value.

A word on the pIC50: it is the IC50 on a negative log10 scale, so that one unit is a factor of ten. With `CCc1cc2c(C(=O)NC)c(-c3ccc(F)cc3)oc2nc1N(CCCC1CCCS1(=O)=O)S(C)(=O)=O` (racemic) [Example 22.98, 6-{[3-(1,1-Dioxo-tetrahydro-1lambdathiophen-2-yl)-propyl]-methanesulfonyl-amino}-5-ethyl-2-(4-fluoro-phenyl)-furo[2,3-b]pyridine-3-carboxylic acid methylamide], the figures for the pIC50 in test [1] and in test [2] were ≥ 7.00 and 7.96, respectively.

As for `CNC(=O)c1c(-c2ccc(F)cc2)oc2nc(N(CCCC3CCCS3(=O)=O)S(C)(=O)=O)c(C3CC3)cc12` (racemic) [Example 24.4], the pIC50 was ≥ 7.00 in test [1] and 8.05 in test [2].

For `CCc1cc2c(C(=O)NC)c(-c3ccc(F)cc3)oc2nc1N(CCCC1CCCS1(=O)=O)S(C)(=O)=O` (single isomer, unassigned) [Example 22.991, 6-{[3-(1,1-Dioxo-tetrahydro-1lambdathiophen-2-yl)-propyl]-methanesulfonyl-amino}-5-ethyl-2-(4-fluoro-phenyl)-furo[2,3-b]pyridine-3-carboxylic acid methylamide], the pIC50 in test [1] is ≥ 7.00; in test [2], 8.15.

As to `CNC(=O)c1c(-c2ccc(F)cc2)oc2nc(N(CCCC3CCCS3(=O)=O)S(C)(=O)=O)c(C3CC3)cc12` (single isomer, unassigned) [Example 24.5, 5-Cyclopropyl-6-{[3-(1,1-dioxo-tetrahydrothiophen-2-yl)-propyI]-methanesulfonyl-amino}-2-(4-fluoro-phenyl)-furo[2,3-b]pyridine-3-carboxylic acid methylamide], the pIC50 in test [1] was ≥ 7.00; in test [2] it was 9.00.

In the case of `CNC(=O)c1c(-c2ccc(F)cc2)oc2nc3c(cc12)[C@@H](C)C[C@H](O)CN3S(C)(=O)=O` (single isomer, unassigned) [Example 34], the pIC50 in test [1] was ≥ 7.00; in test [2] it was 8.05.

Take `CNC(=O)c1c(-c2ccc(F)cc2)oc2nc(N(C)S(C)(=O)=O)c(C3CC3)cc12` [Example 1, 5-Cyclopropyl-2-(4-fluoro-phenyl)-6-(methanesulfonyl-methyl-amino)-furo[2,3-b]pyridine-3-carboxylic acid methylamide]: the pIC50 in test [1] is ≥ 7.00; in test [2], 7.80.

With `C=Cc1cc2c(C(=O)NC)c(-c3ccc(F)cc3)oc2nc1N(C)S(C)(=O)=O` [Example 2.1, 2-(4-fluorophenyl)-N-methyl-6-(N-methylmethylsulfonamido)-5-vinylfuro[2,3-b]pyridine-3-carboxamide], the pIC50 is ≥ 7.00 in test [1] and 7.92 in test [2].

Regarding `CNC(=O)c1c(-c2ccc(F)cc2)oc2nc(N(CCO)S(C)(=O)=O)c(C3CC3)cc12` [Example 2.2, 5-cyclopropyl-2-(4-fluorophenyl)-6-(N-(2-hydroxyethyl)methylsulfonamido)-N-methylfuro[2,3-b]pyridine-3-carboxamide], the values for the pIC50 in test [1] and in test [2] were ≥ 7.00 and 7.27, respectively.

For `CNC(=O)c1c(-c2ccc(C)cc2)oc2nc(N(C)S(C)(=O)=O)c(I)cc12` [Example 2.9, 5-iodo-N-methyl-6-(N-methylmethylsulfonamido)-2-p-tolylfuro[2,3-b]pyridine-3-carboxamide], the pIC50 was ≥ 7.00 in test [1] and 7.80 in test [2].

Consider `CNC(=O)c1c(-c2ccc(C)cc2)oc2nc(N(C)S(C)(=O)=O)c(C3CC3)cc12` [Example 2.93, 5-cyclopropyl-N-methyl-6-(N-methylmethylsulfonamido)-2-p-tolylfuro[2,3-b]pyridine-3-carboxamide], for which the pIC50 is ≥ 7.00 in test [1] and 8.40 in test [2].

Consider `CCc1ccc(-c2oc3nc(N(C)S(C)(=O)=O)c(C4CC4)cc3c2C(=O)NC)cc1` [Example 2.94, 5-cyclopropyl-2-(4-ethylphenyl)-N-methyl-6-(N-methylmethylsulfonamido)furo[2,3-b]pyridine-3-carboxamide], for which the pIC50 in test [1] was ≥ 7.00; in test [2], 8.52.

Turning to `CNC(=O)c1c(-c2ccc(Cl)cc2F)oc2nc(N(C)S(C)(=O)=O)c(I)cc12` [Example 2.95, 2-(4-chloro-2-fluorophenyl)-5-iodo-N-methyl-6-(N-methylmethylsulfonamido)furo[2,3-b]pyridine-3-carboxamide], the figures for the negative logarithm of the IC50 (pIC50) in test [1] and in test [2] were ≥ 7.00 and 8.10, respectively.

Regarding `CNC(=O)c1c(-c2ccc(Cl)cc2)oc2nc(N(C)S(C)(=O)=O)c(C3CC3)cc12` [Example 2.96], the pIC50 in test [1] is ≥ 7.00; in test [2] it was 7.62.

Consider `CNC(=O)c1c(-c2ccc(Cl)cc2F)oc2nc(N(C)S(C)(=O)=O)c(C3CC3)cc12` [Example 2.97], for which the values for the pIC50 in test [1] and in test [2] were ≥ 7.00 and 8.40, respectively.

As to `CNC(=O)c1c(-c2ccc(F)cc2)oc2nc(N(C)S(C)(=O)=O)c(CCCCCNC(=O)OC(C)(C)C)cc12` [Example 14.1, tert-butyl 5-(2-(4-fluorophenyl)-3-(methylcarbamoyl)-6-(N-methylmethylsulfonamido)furo[2,3-b]pyridin-5-yl)pentylcarbamate], the pIC50 in test [1] is ≥ 7.00.

As for `CNC(=O)c1c(-c2ccc(F)cc2)oc2nc(N(CCCC3CCCS3(=O)=O)S(C)(=O)=O)c(C3CC3)cc12` (stereo not drawn) [Example 24.6, 5-Cyclopropyl-6-{[3-(1,1-dioxo-tetrahydrothiophen-2-yl)-propyl]-methanesulfonyl-amino}-2-(4-fluoro-phenyl)-furo[2,3-b]pyridine-3-carboxylic acid methylamide], in test [1], the pIC50 is ≥ 7.00.

As for `CNC(=O)c1c(-c2ccc(C)cc2)oc2nc(N(CCCC[C@H](COC)C(=O)O)S(C)(=O)=O)c(C3CC3)cc12` [Example 47.5, (R)-6-(N-(5-Cyclopropyl-3-(methylcarbamoyl)-2-p-tolylfuro[2,3-b]pyridin-6-yl)methylsulfonamido)-2-(methoxymethyl)hexanoic acid], the pIC50 in test [2] was 8.52.

For `CNC(=O)c1c(-c2ccc(C)cc2)oc2nc(N(CCCC[C@H](COC)C(=O)N[C@H](CO)Cc3ccccc3)S(C)(=O)=O)c(C3CC3)cc12` [Example 47.6, 5-Cyclopropyl-6-(N—((R)-6-((S)-1-hydroxy-3-phenylpropan-2-ylamino)-5-(methoxymethyl)-6-oxohexyl)methylsulfonamido)-N-methyl-2-p-tolylfuro[2,3-b]pyridine-3-carboxamide], the pIC50 in test [2] was 8.30.

`CNC(=O)c1c(-c2ccc(C)cc2)oc2nc(N(CCC[C@H](COC)C(=O)O)S(C)(=O)=O)c(C3CC3)cc12` [Example 47.7, (R)-5-(N-(5-Cyclopropyl-3-(methylcarbamoyl)-2-p-tolylfuro[2,3-b]pyridin-6-yl)methylsulfonamido)-2-(methoxymethyl)pentanoic acid]: the pIC50 in test [2] was 8.70.

Turning to `CNC(=O)c1c(-c2ccc(C)cc2)oc2nc(N(CCC[C@H](COC)C(=O)N3C(=O)OC[C@@H]3Cc3ccccc3)S(C)(=O)=O)c(I)cc12` [Example 47.71], the pIC50 in test [2] is 7.59.

On to `CNC(=O)c1c(-c2ccc(C)cc2)oc2nc(N(CCC[C@H](COC)C(=O)N3C(=O)OC[C@@H]3Cc3ccccc3)S(C)(=O)=O)c(C3CC3)cc12` [Example 47.72], for which the pIC50 in test [2] was 8.22.

Turning to `CNC(=O)c1c(-c2ccc(C)cc2)oc2nc(N(CCCC3(CC(=O)O)CCOCC3)S(C)(=O)=O)c(C3CC3)cc12` [Example 48, 2-(4-(3-(N-(5-cyclopropyl-3-(methylcarbamoyl)-2-p-tolylfuro[2,3-b]pyridin-6-yl)methylsulfonamido)propyl)tetrahydro-2H-pyran-4-yl)acetic acid], the pIC50 in test [2] was 8.10.

For `CNC(=O)c1c(-c2ccc(C)cc2)oc2nc(N(CCC[C@H](C)C(=O)OCOP(=O)(O)O)S(C)(=O)=O)c(C3CC3)cc12` [Example 49, (S)-(phosphonooxy)methyl 5-(N-(5-cyclopropyl-3-(methylcarbamoyl)-2-(p-tolyl)furo[2,3-b]pyridin-6-yl)methylsulfonamido)-2-methylpentanoate], the pIC50 in test [2] was 8.70.

On to `CNC(=O)c1c(-c2ccc(C)cc2)oc2nc(N(CCC[C@H](C)C(=O)OCOP(=O)(OCc3ccccc3)OCc3ccccc3)S(C)(=O)=O)c(C3CC3)cc12` [Example 49.1, (S)-((bis(benzyloxy)phosphoryl)oxy)methyl 5-(N-(5-cyclopropyl-3-(methylcarbamoyl)-2-(p-tolyl)furo[2,3-b]pyridin-6-yl)methylsulfonamido)-2-methylpentanoate], for which the pIC50 in test [2] was 8.22.

Turning to `CNC(=O)c1c(-c2ccc(C)cc2)oc2nc(N(CCCC(O)C(C)(C)C(=O)O)S(C)(=O)=O)c(C3CC3)cc12` (stereo not drawn) [Example 50, 6-(N-(5-cyclopropyl-3-(methylcarbamoyl)-2-p-tolylfuro[2,3-b]pyridin-6-yl)methylsulfonamido)-3-hydroxy-2,2-dimethylhexanoic acid], the pIC50 in test [2] is 8.52.

Source of the values: patent US20120015907A1, “Furopyridine compounds and uses thereof” (NOVARTIS AG, priority 2010, published 2012).
